Reference: patent publication US12551468B2, “Pharmaceutical composition for oral administration, for treatment of liver cancer” (ETNOVA Therapeutics Corp., priority 2019, dated 2026)

Assays:
[1] = system: human liver cancer cell line HepG2; assay: Anticancer effect test in liver cancer animal model using human liver cancer cell line (Example 2); assay type: in vivo, nude mouse; conditions: for relative size of tumor isolated 21 days after administration: compound 100 mg/kg P.O., Cisplatin 5 mg/kg IV, twice a week for 3 weeks, FIG. 2
Experimental: (§1) The human liver cancer cell line HepG2 was grown in Eagle's Minimum Essential Medium (EMEM) medium supplemented with 10% Fetal bovine serum (FBS) and 1% Antibiotic-Antimycotic. For liver cancer animal model production, stabilized cells were suspended in a 1:1 mixture (100 μL) of EMEM serum free media: Matrigel at a density of 5×10^6 cells/animal and then the suspension was transplanted subcutaneously to a flank of a nude mouse (5 weeks old, male). We have waited for the tumor formation for 3 weeks. When the tumor volume reached 200 mm^3, the body weight and the tumor size were measured and then the mice were randomly grouped. The mice were divided into 3 groups. Saline alone was administered intravenously to each group (Saline administered group (n=6, IV)). Cisplatin adjusted to pH 4 using NaCl aqueous solution, HCl aqueous solution, or NaOH aqueous solution was administered intravenously thereto (Cisplatin administered group (n=6, IV)). The compound according to the present disclosure (compound of Chemical Formula 1-1) dissolved in saline was forcibly administered orally thereto (administered group according to the present disclosure (n=6, P.O.)). The administration intervals and frequencies of administration to the groups were equal to each other. The administration was performed once a day and twice a week for 3 weeks. The dosage of Cisplatin (intravenous administration) was 5 mg/kg. The composition was orally administered at 100 mg/kg to the administered group according to the present disclosure.
The mice were anesthetized immediately prior to the administration, and then the body weight thereof was measured to observe the change in the body weight. The change in the tumor size over time was observed based on a following equation.
Average tumor volume calculation equation: V (mean tumor volume)=(A×B×B)/2
(In the above equation, A denotes a length of a long side and B denotes a length of a short side).
Further, on 21 days after the administration, a start time of tumor necrosis in the saline group was designated as an end point of the experiment. All nude mice participating in the experiment were sacrificed. Only the tumor was isolated from the flank thereof, and the relative size of the tumor was photographed. In FIG. 2, grayish-white dots mean that all tumors have disappeared and an individual has a tumor which may not be distinguished.

[2] = Comparative study of blood and histological toxicity (serum GOT/GPT activity, Sirius red staining of liver and kidney); assay type: in vivo; conditions: oral administration, end of Example 2 experiment; FIG. 3 and FIG. 4
Experimental: Toxicity was analyzed based on activity assay of GOT and GPT. A specific experimental method is as follows: GOT and GPT activity in serum was measured using a reagent kit (Asan Pharmaceutical) prepared according to a method of Reitman-Frankel. At an end of the experiment, blood was collected from an abdominal vena cava of the mice to which the compound was administered, and serum was separated therefrom. When a substrate solution was added to the serum which in turn was heated for a certain period of time, oxalacetate and glutamic acid were generated from the substrate solution for GOT measurement (aspartate, a-ketoglutarate mixture) due to the action of serum GOT, while under GPT action, pyruvate and glutamic acid were generated from the substrate solution for GPT measurement (Alanine, a-ketoglutarate mixture). Then, […] was added thereto such that 2,4-dinitrophenylhydrazone of oxaloacetate or pyruvate was produced, and NaOH was added thereto to develop color, and then absorbance was measured (505 nm). The activity of GOT and GPT in serum was calculated from a standard calibration curve as prepared separately.
At the end of the experiment, the blood of nude mice participating in the experiment was perfused and livers and kidneys were obtained. The tissues were fixed in 4% paraformaldehyde. […]

Human liver cancer cells = assay: Comparative test of anticancer effect according to administration route change (Example 5); assay type: in vivo; conditions: 100 mg/kg P.O. vs 5 mg/kg I.V., twice a week for 4 weeks
Experimental: Human liver cancer cells were suspended in a 1:1 mixture (100 μL) of EMEM serum free media: Matrigel at a density of 2×10^6 cells/animal and the suspension was transplanted subcutaneously into the flank of nude mice (5 weeks old, male). We have waited for the tumor formation for 4 weeks. When the tumor volume reached 100 mm^3, the body weight and the tumor size were measured and then the mice were randomly grouped. The mice were divided into 4 groups. Saline alone was administered intravenously to each group (Saline administered group (n=6, I.V.)). Cisplatin adjusted to pH 4 using NaCl aqueous solution, HCl aqueous solution, or NaOH aqueous solution was administered intravenously thereto (Cisplatin administered group (n=5, I.V.)). […] The mice were anesthetized immediately prior to administration, and the body weight was measured to observe the change in the body weight. The changes in the body weight and the tumor size for 4 weeks were measured in the same manner as in Example 1 above, and the results are shown in FIG. 6. In the same manner as in Example 2, the tumor was separated and the relative size of the tumor was measured, and the photographed tissue is shown in FIG. 7.

[3] = system: human liver cancer cell line HepG2; assay: Comparison of survival rate in the liver cancer animal model (Example 4); assay type: in vivo, nude mouse; conditions: animal model test of Example 2; FIG. 5
Experimental: as §1, with “The composition was orally administered at 100 mg/kg to the administered group according to the present disclosure.” left out

[4] = 100 mg/kg P.O., once a day twice a week for 3 weeks, FIG. 1

## NCC(N)C(=O)Nc1ccc(-c2nc3ccccc3s2)cc1 (centres unmarked) [Chemical Formula 1-1]
[1]; [4]
  change in body weight for 3 weeks: no decrease in the body weight
  change in tumor size for 3 weeks: the tumor disappeared or the size thereof was significantly reduced
[1]
  relative size of tumor isolated 21 days after administration: tumors significantly decrease or completely disappear
[2]
  toxicity in the liver and kidneys (serum GOT and GPT activity, tissue histology): significantly lowered
Human liver cancer cells; FIG. 6
  toxicity based on the change in body weight, oral compared to intravenous administration: the toxicity based on the change in body weight may be lowered
Human liver cancer cells; FIGS. 6, 7, 8
  anticancer effect (tumor size, isolated tumor at 28 days, survival), oral compared to intravenous administration: the anticancer effect may be significantly better
[3]
  survival over time after drug administration: the survival was higher

## N.N.[Cl][Pt][Cl] [Cisplatin, cisplatin, reference compound]
[1]
  relative size of tumor isolated 21 days after administration: tumor cells remain
